According to patent publication US5166214A, “Use of imidazoles for the treatment of atherosclerosis” (priority 1990, dated 1992):
Where a name gives a salt, the structure may show the parent alone. Read-outs that look alike come from different tables or passages of the source.

Columns and labels:
[1] = tested on: murine macrophage-like cell line J774.A1; experiment: Inhibition of cholesterol esterification in mammalian cells (macrophage assay); assay type: cell-based
How it was run: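 Murine J774.A1 macrophages at 37 °C received 34 μg acetylated human LDL in 10% FBS-DMEM from 24 h, compound in DMSO at 41 h, then a 0.1 mM 14C-oleic acid–BSA pulse from 43 to 45 h. Labelled cholesteryl ester was separated by TLC, counted and normalised to Lowry protein.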

[2] = tested on: hypercholesterolemic (cholesterol-fed) hamsters; experiment: Antihypercholesterolemic activity in cholesterol-fed hamsters; assay type: in vivo, hamster; details: two weeks; for Serum Cholesterol, Treated: mean ± SEM, n = 9-10; for Serum Cholesterol Decrease: vs control
Procedure: C. Assay of Antihypercholesterolemic Activity in Cholesterol-fed Hamsters
Inhibition of ACAT activity in the gut reduces the absorption of cholesterol in cholesterol-fed animals. Hamsters weighing approximately 100 g, were maintained on a diet supplemented with 0.8% cholesterol. The treatment group received 1-100 mg/kg/day, p.o., of the test compound dissolved in 500 μl of corn oil for a period of two weeks. The control group were pair-fed to the treatment group and were dosed with 500 μl of the corn oil vehicle. At sacrifice, the hamsters were anesthetized with CO2 and exsanguinated via cardiac puncture. Total serum cholesterol was determined on a Du Pont aca® IV. The data were expressed in terms of mg cholesterol per 100 ml of serum (mg %).

[3] = molecular target: T1, Acyl-CoA: Cholesterol Acyltransferase (ACAT) (Rattus norvegicus, UniProt Q7TQM4); experiment: Inhibition of acyl-CoA: cholesterol acyltransferase (ACAT) in hepatic microsomes (in vitro); assay type: biochemical, rat (male Sprague Dawley)
T1 construct: Microsomes were obtained by differential centrifugation; from tissue; host or cells: liver microsomes of male Sprague Dawley rats
T1 sequence (Q7TQM4 1-524): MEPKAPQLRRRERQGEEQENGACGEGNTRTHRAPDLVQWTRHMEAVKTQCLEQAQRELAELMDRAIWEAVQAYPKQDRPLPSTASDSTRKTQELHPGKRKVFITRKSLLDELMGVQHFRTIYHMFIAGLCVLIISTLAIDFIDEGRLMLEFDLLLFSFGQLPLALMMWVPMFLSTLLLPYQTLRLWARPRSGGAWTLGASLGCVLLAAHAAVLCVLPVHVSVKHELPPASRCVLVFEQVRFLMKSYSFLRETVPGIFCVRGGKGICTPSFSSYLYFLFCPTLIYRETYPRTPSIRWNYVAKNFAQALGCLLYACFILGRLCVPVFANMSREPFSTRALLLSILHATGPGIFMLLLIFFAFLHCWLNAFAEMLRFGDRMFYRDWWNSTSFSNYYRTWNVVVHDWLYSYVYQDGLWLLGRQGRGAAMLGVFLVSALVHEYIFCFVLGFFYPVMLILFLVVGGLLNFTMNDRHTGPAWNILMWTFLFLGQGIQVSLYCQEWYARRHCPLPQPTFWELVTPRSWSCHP
Procedure: A. Assay of the Inhibition of Acyl-CoA: Cholesterol Acyltransferase (ACAT) in Hepatic Microsomes
The ability of the compounds to inhibit ACAT, the enzyme responsible for the intracellular synthesis of cholesteryl esters, was tested as follows. Male Sprague Dawley rats weighing 150-300 g, were fed rat chow ad libitum. The animals were fasted for twenty-four hours prior to being sacrificed by decapitation. The livers were perfused in situ with 50 ml of cold 0.25M sucrose, excised, and homogenized in three volumes of 0.1M phosphate buffer, pH 7.4, that contained 0.5 mM EDTA (ethylenediaminetetraacetic acid), 1.0 mM glutathione, 0.25M sucrose and […]. Microsomes were obtained by differential centrifugation; the supernatant from an initial spin at 15,000×g for 15 minutes was centrifuged at 105,000×g for 1 hour to pellet the microsomes. The microsomes were suspended in homogenization buffer, reisolated by centrifugation, and stored at -70° C. Microsomes were used within one month of preparation.
The control assay in a final volume of 200 μl consisted of 200 μg of microsomal protein, 75 μM ^14 C-oleoyl-CoA (10,000 dpm/nmol) in 0.1M phosphate, pH 7.4, that contained 1 mM glutathione. Compounds were added in 5 μl of DMSO (dimethyl sulfoxide) and additional controls were run with DMSO only. All components, except the oleoyl-CoA, were preincubated for 15 min. at 37° C. prior to the initiation of the reaction by the addition of oleoyl-CoA. The assay was terminated after 10 min by the addition of 4 ml of chloroform:methanol (2:1, v/v). 20,000 dpm of ^3 H-cholesteryl oleate and 10 μg of unlabeled cholesteryl oleate and oleic acid were added as an internal standard and carriers, respectively. After allowing 10 min. for lipid extraction, the samples were centrifuged at 1,000×g for 10 min. to separate the solvent layers. The chloroform layer containing the neutral lipids was spotted onto a Baker SI250-Pa silica gel TLC plate and the plate developed using a hexane: diethyl ether: acetic acid (170:30:1 v/v/v) mobile phase. The lipids were visualized by their interaction with iodine vapor and the cholesteryl ester spot was scraped into a scintillation vial and counted.

[4] = J774.A1 macrophages loaded with ac-LDL, 14C-oleic acid, read-out: Cholesterol Esterification IC50
[5] = rat hepatic microsomes, 75 μM 14C-oleoyl-CoA, pH 7.4, 37° C., read-out: In Vitro ACAT IC50
[6] = In Vitro ACAT IC50, rat hepatic microsomes, 75 μM 14C-oleoyl-CoA, pH 7.4, 37° C.

Structure (SMILES)	IC50 [1, 4]	IC50 [3, 5]	other results
CCCCCCCN(CCCCCSc1nc(-c2ccccc2)c(-c2ccccc2)[nH]1)C(=O)Nc1ccc(F)cc1F [Example 1, N'-(2,4-difluorophenyl)-N-[5-(4,5-diphenyl-1H-imidazol-2-ylthio)pentyl]-N-heptylurea]	1 µM		Serum Cholesterol, Treated ([2]; 1 mg/kg/day p.o., control 400 ± 25): 295 ± 12 mg %; Serum Cholesterol Decrease ([2]; 1 mg/kg/day p.o.): 26%; Serum Cholesterol, Treated ([2]; 3 mg/kg/day p.o., control 381 ± 17): 279 ± 16 mg %; Serum Cholesterol Decrease ([2]; 3 mg/kg/day p.o.): 27%; Serum Cholesterol, Treated ([2]; 10 mg/kg/day p.o., control 371 ± 7): 201 ± 12 mg %; Serum Cholesterol Decrease ([2]; 10 mg/kg/day p.o.): 46%; Serum Cholesterol, Treated ([2]; 30 mg/kg/day p.o., control 368 ± 15): 197 ± 11 mg %; Serum Cholesterol Decrease ([2]; 30 mg/kg/day p.o.): 46%; Serum Cholesterol, Treated ([2]; 100 mg/kg/day p.o., control 400 ± 17): 62 ± 8 mg %; Serum Cholesterol Decrease ([2]; 100 mg/kg/day p.o.): 60%
CCCCCCCN(CCCCCSc1nc(-c2ccccc2)c(-c2ccccc2)[nH]1)C(=O)OCC(C)C [Example 403, (2-Methylpropyl) [5-(4,5-diphenyl-1H-imidazol-2-ylthio)pentyl]heptylcarbamate]	0.5 µM	0.035 µM	
CCCCCCCN(CCCCCSc1nc(-c2ccccc2)c(-c2ccccc2)[nH]1)C(=O)OCC [Example 404, Ethyl [5-(4,5-diphenyl-1H-imidazol-2-ylthio)pentyl]heptylcarbamate]	0.5 µM	0.033 µM	
CCCCCCCCOC(=O)N(CCCCCCC)CCCCCSc1nc(-c2ccccc2)c(-c2ccccc2)[nH]1 [Example 405, Octyl [5-(4,5-diphenyl-1H-imidazol-2-ylthio)pentyl]heptylcarbamate]	3.9 µM	0.5 µM	
CCCCCCCN(CCCCCSc1nc(-c2ccccc2)c(-c2ccccc2)[nH]1)C(=O)Oc1ccc(F)cc1 [Example 406, (4-fluorophenyl)[5-(4,5-diphenyl-1H-imidazol-2-ylthio)pentyl]heptylcarbamate]	0.6 µM		IC50 [3, 6]: 0.01 µM
CCCCCCCN(CCCCCSc1nc(-c2ccccc2)c(-c2ccccc2)[nH]1)C(=O)OCCC [Example 407, Propyl [5-(4,5-diphenyl-1H-imidazol-2-ylthio)pentyl]heptylcarbamate]	0.8 µM	0.04 µM	
CCCCCCCN(CCCCCSc1nc(-c2ccccc2)c(-c2ccccc2)[nH]1)C(=O)OCc1ccccc1 [Example 408, (Phenylmethyl) [5-(4,5-diphenyl-1H-imidazol-2-ylthio)pentyl]heptylcarbamate]	1.3 µM	0.009 µM	
CCCCCCCN(CCCCCSc1nc(-c2ccc(OC)cc2)c(-c2ccc(OC)cc2)[nH]1)C(=O)Oc1ccccc1 [Example 410]	0.03 µM		IC50 [3, 6]: 0.64 µM
CCCCCCCN(CCCCCSc1nc(C(C)C)c(C(C)C)[nH]1)C(=O)Oc1ccccc1 [Example 411, phenyl N-[5-(4,5-bis(1-methylethyl)-1H-imidazol-2-ylthio]pentyl]-N-heptylcarbamat]	0.5 µM		IC50 [3, 6]: 0.31 µM
CCCCCCCN(CCCCCSc1nc(-c2ccc(OC)cc2)c(-c2ccc(OC)cc2)[nH]1)C(=O)OCC(C)C [Example 457]	0.1 µM	0.834 µM	
CCCCCCCNCCCCCSc1nc(-c2ccccc2)c(-c2ccccc2)[nH]1 [N-[5(4,5-diphenyl-1H-imidazol-2-ylthio)pentyl]-1-heptanaminehydrochloride]			IC50 ([1]; intermediate, read-out: IC50 in the macrophage assay): 6 µM; IC50 ([3]; intermediate, read-out: IC50 in the in vitro ACAT assay): 0.1 µM
